Read-outs that look alike come from different tables or passages of the source.
Assays:
[1] = mice, single intraperitoneal dose at the same dose level (100 mg/kg); cited from earlier work
in vitro = conditions: male, Sprague-Dawley, rat, microsomes, pH 7.4
metastasis = conditions: 50 mg/kg/day; cited from earlier work
[2] = Plasma levels in mice after single intraperitoneal dose; conditions: female, BALB/c, mouse, in vivo, ip, 100 mg/kg
[3] = mouse, in vivo, ip
[4] = 14-day repeated dose toxicity study in mice; conditions: 5, 10 and 25 mg/kg/day i.p. for 14 days; normal behavior and food consumption
in vivo = conditions: female, BALB/c, mouse, ip
gelatinases = conditions: cited from earlier work

Which “plasma levels at 1 h” value [1] does the source give for O=S(=O)(CC1CS1)c1ccc(Oc2ccccc2)cc1 (stereo not drawn) [Compound 1, (4-phenoxyphenylsulfonyl)methylthiirane] here?
The value was under 1 µM.

What about the remaining at 0.25 h, 25 μM (in vitro) of the same molecule?
The remaining at 0.25 h, 25 μM was 0.5%.

What about the “efficacy in mouse models of metastasis” value (metastasis) of the same molecule?
Its value is “has shown efficacy”.

With CS(=O)(=O)Oc1ccc(Oc2ccc(S(=O)(=O)CC3CS3)cc2)cc1 (stereo not drawn) [Compound 2, 4-(4-(Thiiranylmethylsulfonyl)phenoxy)-phenyl methanesulfonate] as the molecule, how does the concentration at 1 h [2] read?
Its concentration at 1 h is 70.5 µM.

What about the “Concentration of 2 at 1 h” value ([3]; female, BALB/c, 25 mg/kg/day, 1 h) of the same molecule?
The value was 3.2 µM.

And the “Concentration of 2 at 1 h” value ([3]; 5 mg/kg/day)?
Its value is “LOQ”.

What about the “Concentration of 2 at 1 h” value ([3]; 10 mg/kg/day) of the same molecule?
The value was “LOQ”.

What about the “toxicity upon multiple-dose administration” value [4] of the same molecule?
The value was “No toxicity was observed”.

What about the concentration at 1 h (in vivo; 5 mg/kg/day) of the same molecule?
Its concentration at 1 h is under 1 µM.

And the concentration at 1 h (in vivo; 10 mg/kg/day)?
The concentration at 1 h was under 1 µM.

And the concentration at 1 h (in vivo; 25 mg/kg/day)?
The concentration at 1 h was 3.2 µM.

For O=S(=O)(CC1CS1)c1ccc(Oc2ccc(O)cc2)cc1 (stereo not drawn) [p-hydroxy variant], which “gelatinase inhibitory activity relative to parent 1” value (gelatinases) is on record?
The value was “more active gelatinase inhibitor than the parent 1”.

Reference: publication PMC2747590 (Chemical biology & drug design, 2009)
